# Laboratory results published in ChEMBL document CHEMBL1157827, “The synthesis and biological evaluation of quinolyl-piperazinyl piperidines as potent serotonin 5-HT1A antagonists” (J Med Chem, 2010).
# Assays:
# [1] = biological target: T1, 5-hydroxytryptamine receptor 1A (Homo sapiens, UniProt P08908)
# T1 sequence (P08908 whole entry): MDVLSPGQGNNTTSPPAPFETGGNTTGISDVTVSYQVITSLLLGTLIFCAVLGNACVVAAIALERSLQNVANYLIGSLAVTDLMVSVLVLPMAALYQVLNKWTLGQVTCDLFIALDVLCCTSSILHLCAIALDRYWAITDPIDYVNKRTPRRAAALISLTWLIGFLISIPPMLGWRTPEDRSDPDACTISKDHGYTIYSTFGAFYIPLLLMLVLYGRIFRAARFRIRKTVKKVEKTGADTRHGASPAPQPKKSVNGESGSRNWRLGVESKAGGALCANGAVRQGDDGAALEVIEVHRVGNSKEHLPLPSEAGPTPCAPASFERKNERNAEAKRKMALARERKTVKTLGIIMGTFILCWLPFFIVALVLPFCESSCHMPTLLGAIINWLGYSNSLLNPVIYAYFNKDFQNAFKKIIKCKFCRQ
# in vitro [2] = settings: rat, liver microsomes
# Description: Half life in rat liver microsomes at 1 uM after 20 mins
# in vitro [3] = settings: human, liver microsomes
# Description: Half life in human liver microsomes at 1 uM after 20 mins
# [4] = biological target: T1, 5-hydroxytryptamine receptor 1A; assay: biochemical
# Description: Displacement of [3H]8-OH-DPAT from human 5HT1A receptor expressed in CHO cells
# [5] = Clearance in Sprague-Dawley rat at 1 mg/kg, iv administered as single dose by LC/MS/MS analysis; format: ADME, organism-based; set-up: dose 1 mg/kg, route intravenous; settings: in vivo
# [6] = Volume of distribution at steady state in Sprague-Dawley rat at 1 mg/kg, iv administered as single dose by LC/MS/MS analysis; format: ADME, organism-based; set-up: dose 1 mg/kg, route intravenous; settings: in vivo, read-out: Vdss
# [7] = Cmax in Sprague-Dawley rat at 3 mg/kg, po administered as single dose by LC/MS/MS analysis; format: ADME, organism-based; set-up: dose 3 mg/kg, route oral; settings: in vivo
# [8] = Tmax in Sprague-Dawley rat at 3 mg/kg, po administered as single dose by LC/MS/MS analysis; format: ADME, organism-based; set-up: dose 3 mg/kg, route oral; settings: in vivo
# [9] = Half life in Sprague-Dawley rat at 3 mg/kg, po administered as single dose by LC/MS/MS analysis; format: ADME, organism-based; set-up: dose 3 mg/kg, route oral; settings: in vivo
# [10] = AUC in Sprague-Dawley rat at 3 mg/kg, po administered as single dose by LC/MS/MS analysis; format: ADME, organism-based, Plasma; set-up: dose 3 mg/kg, route oral; settings: Sprague-Dawley, plasma
# [11] = Oral bioavailability in Sprague-Dawley rat at 3 mg/kg administered as single dose by LC/MS/MS analysis; format: ADME, organism-based; settings: Sprague-Dawley, in vivo
# [12] = Ratio of drug level in brain to plasma in Sprague-Dawley rat at 3 mg/kg, po administered as single dose; format: ADME, organism-based; set-up: dose 3 mg/kg, route oral; settings: read-out: BPR
# Plasma = assay: Drug level in Sprague-Dawley rat plasma at 3 mg/kg, po administered as single dose by LC/MS/MS analysis; format: ADME, organism-based; set-up: dose 3 mg/kg, route oral; settings: in vivo
IC50 [1],"half-life at 20 min, 1 µM (in vitro [2])","half-life at 20 min, 1 µM (in vitro [3])",Ki [4],clearance [5],Vd [6],Cmax [7],Tmax [8],half-life [9],AUC [10],bioavailability [11],Kp [12],concentration (Plasma),Structure (SMILES)
46.5 nM,2 min,4 min,3.4 nM,,,,,,,,,,COc1cc(N2CCN(C3CCN(c4cc(F)cc5cccnc45)CC3)CC2)c2ncccc2c1
2.8 nM,3 min,3 min,177 nM,,,,,,,,,,COc1cc(N2CCN(C3CCN(c4ccc(F)c5c(C)cc(C)nc45)CC3)CC2)c2ncccc2c1
30 nM,4 min,13 min,2.1 nM,,,,,,,,,,COc1cc(N2CCN(C3CCN(c4cccc5c(OC)cc(C(F)(F)F)nc45)CC3)CC2)c2ncccc2c1
23 nM,2 min,3 min,1.8 nM,,,,,,,,,,COc1cc(N2CCN(C3CCN(c4cccc5ccc(C(F)(F)F)nc45)CC3)CC2)c2ncccc2c1
,2 min,3 min,,38.7 mL/min/kg,2.8 L/kg,130 ng/mL,60 min,72 min,360 ng·h/mL,27%,2.8,200 nM,COc1cc(N2CCN(C3CCN(c4cccc5cccnc45)CC3)CC2)c2ncccc2c1
10 nM,2 min,2 min,0.61 nM,,,,,,,,,,COc1cc(N2CCN(C3CCN(c4cc(Br)cc5cccnc45)CC3)CC2)c2ncccc2c1
5.6 nM,2 min,2 min,0.79 nM,,,,,,,,,,COc1cc(N2CCN(C3CCN(c4cccc5cc(F)cnc45)CC3)CC2)c2ncccc2c1
7 nM,3 min,3 min,3.6 nM,,,,,,,,,,COc1cc(N2CCN(C3CCN(c4ccc(F)c5ccc(C(F)(F)F)nc45)CC3)CC2)c2ncccc2c1
15 nM,9 min,27 min,0.87 nM,,,,,,,,,,COc1cc(N2CCN(C3CCN(c4ccc(F)c5cc(C(F)(F)F)cnc45)CC3)CC2)c2ncccc2c1
